Three molecules from the kinase profiling compilation of Christmann-Franck et al. (2016) can be followed below.

As usually defined, the Kd is the concentration at which binding is half-saturated. High values mean a looser complex, low ones a tighter complex. By IC50 is commonly meant the concentration that inhibits the measured activity by half. Lower therefore signals greater potency in that assay.

In one assay the target is PLK1 (human) (UniProt P53350). Put plainly: KINOMEscan competition binding. The conditions noted are these: compound 10.0 µM.
For assay [1], the target named is TTK (human) (UniProt P33981). Briefly: KINOMEscan competition binding. The conditions noted are these: for kinase still bound, per cent of control: compound 10.0 µM.
The target of another assay is PTK2B (human) (UniProt Q14289). Put plainly: KINOMEscan competition binding. Particulars: compound 10.0 µM.
The next assay has as its target PLK4 (human) (UniProt O00444). Put plainly: KINOMEscan competition binding. Particulars: compound 10.0 µM.
In another assay the target is DAPK2 (human) (UniProt Q9UIK4). Put plainly: KINOMEscan competition binding. Particulars: compound 10.0 µM.
In the next assay the target is PLK3 (human) (UniProt Q9H4B4). Put plainly: KINOMEscan competition binding. The conditions noted are these: compound 10.0 µM.
The target of a further assay is GAK (human) (UniProt O14976). Put plainly: KINOMEscan competition binding. The conditions noted are these: compound 10.0 µM.
A further assay addresses PTK2 (human) (UniProt Q05397). Briefly: KINOMEscan competition binding. The conditions noted are these: compound 10.0 µM.
For assay [2], the system named is EGFR (human), P00533 [A750P; 747-749 del]. Briefly: KINOMEscan competition binding. Particulars: compound 10.0 µM.
In assay [3] the test system is EGFR (human), P00533 [G719C; 746-750 del]. Briefly: KINOMEscan competition binding. The conditions noted are these: compound 10.0 µM.
Another assay has as its target MYLK (human) (UniProt Q15746). Briefly: KINOMEscan competition binding. The conditions noted are these: compound 10.0 µM.
A further assay addresses TNK1 (human) (UniProt Q13470). Briefly: KINOMEscan competition binding. Particulars: compound 10.0 µM.
The test system of assay [4] is EGFR (human), P00533 [P753S; 747-752 del]. Put plainly: KINOMEscan competition binding. The conditions noted are these: compound 10.0 µM.
The next assay concerns the target STK33 (human) (UniProt Q9BYT3). Briefly: KINOMEscan competition binding. The conditions noted are these: compound 10.0 µM.
Assay [5] relates to EGFR (human), P00533 [747-751 del / S ins]. Briefly: KINOMEscan competition binding. The conditions noted are these: compound 10.0 µM.
For assay [6], the system named is EGFR (human), P00533 [752-759 del]. Put plainly: KINOMEscan competition binding. Particulars: compound 10.0 µM.
Assay [7] concerns the target TTK (human) (UniProt P33981). Put plainly: SelectScreen, TR FRET. For orientation: In TR-FRET formats the signal depends on donor and acceptor labels being close together.
In a further assay the target is RPS6KA2 KD2 (human) (UniProt Q15349). Briefly: KINOMEscan competition binding. Particulars: compound 10.0 µM.
The target of a further assay is DCLK1 (human) (UniProt O15075). Briefly: KINOMEscan competition binding. Particulars: compound 10.0 µM.
The next assay deals with RPS6KA6 KD2 (human) (UniProt Q9UK32). Put plainly: KINOMEscan competition binding. The conditions noted are these: compound 10.0 µM.
For assay [8], the system named is EIF2AK4 KD2 (human), Q9P2K8 [S808G]. Put plainly: KINOMEscan competition binding. Particulars: compound 10.0 µM.
The target in the next assay is PRKD2 (human) (UniProt Q9BZL6). Put plainly: KINOMEscan competition binding. Particulars: compound 10.0 µM.
The target of another assay is DCLK2 (human) (UniProt Q8N568). Put plainly: KINOMEscan competition binding. Particulars: compound 10.0 µM.
A further assay addresses PRKD1 (human) (UniProt Q15139). Put plainly: KINOMEscan competition binding. The conditions noted are these: compound 10.0 µM.
A further assay concerns the target CHEK1 (human) (UniProt O14757). Briefly: KINOMEscan competition binding. Particulars: compound 10.0 µM.
The next assay deals with RPS6KA4 KD2 (human) (UniProt O75676). Briefly: KINOMEscan competition binding. The conditions noted are these: compound 10.0 µM.
The next assay has as its target RPS6KA1 KD2 (human) (UniProt Q15418). Briefly: KINOMEscan competition binding. The conditions noted are these: compound 10.0 µM.
For a further assay, the target named is MINK1 (human) (UniProt Q8N4C8). Put plainly: KINOMEscan competition binding. Particulars: compound 10.0 µM.
For another assay, the target named is ULK2 (human) (UniProt Q8IYT8). Briefly: KINOMEscan competition binding. Particulars: compound 10.0 µM.
For another assay, the target named is CAMKK2 (human) (UniProt Q96RR4). Briefly: KINOMEscan competition binding. Particulars: compound 10.0 µM.
The next assay deals with ALK (human) (UniProt Q9UM73). Briefly: KINOMEscan competition binding. The conditions noted are these: compound 10.0 µM.
Another assay deals with INSRR (human) (UniProt P14616). Briefly: KINOMEscan competition binding. Particulars: compound 10.0 µM.
In the next assay the target is FER (human) (UniProt P16591). Put plainly: KINOMEscan competition binding. The conditions noted are these: compound 10.0 µM.
Another assay concerns the target SLK (human) (UniProt Q9H2G2). Briefly: KINOMEscan competition binding. The conditions noted are these: compound 10.0 µM.
For a further assay, the target named is ULK1 (human) (UniProt O75385). Briefly: KINOMEscan competition binding. The conditions noted are these: compound 10.0 µM.
In a further assay the target is PRKD3 (human) (UniProt O94806). Put plainly: KINOMEscan competition binding. The conditions noted are these: compound 10.0 µM.

SMILES strings stand for the structures.

PLK1 (human), sequence (P53350 whole entry, looked up): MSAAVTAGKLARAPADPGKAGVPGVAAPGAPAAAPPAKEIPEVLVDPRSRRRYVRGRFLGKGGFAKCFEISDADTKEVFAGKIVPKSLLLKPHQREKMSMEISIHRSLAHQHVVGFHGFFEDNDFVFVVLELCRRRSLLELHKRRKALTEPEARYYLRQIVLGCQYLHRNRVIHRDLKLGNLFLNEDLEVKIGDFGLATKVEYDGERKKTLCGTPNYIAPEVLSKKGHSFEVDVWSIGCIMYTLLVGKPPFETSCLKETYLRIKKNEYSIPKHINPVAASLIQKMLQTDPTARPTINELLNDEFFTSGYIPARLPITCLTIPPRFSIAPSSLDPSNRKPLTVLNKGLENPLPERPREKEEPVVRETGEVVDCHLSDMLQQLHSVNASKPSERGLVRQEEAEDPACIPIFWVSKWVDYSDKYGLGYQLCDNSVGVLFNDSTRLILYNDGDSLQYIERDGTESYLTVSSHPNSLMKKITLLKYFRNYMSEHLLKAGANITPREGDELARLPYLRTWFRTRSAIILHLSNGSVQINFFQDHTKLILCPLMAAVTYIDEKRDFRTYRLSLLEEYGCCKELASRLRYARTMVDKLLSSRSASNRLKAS
GAK (human), sequence (O14976 whole entry, looked up): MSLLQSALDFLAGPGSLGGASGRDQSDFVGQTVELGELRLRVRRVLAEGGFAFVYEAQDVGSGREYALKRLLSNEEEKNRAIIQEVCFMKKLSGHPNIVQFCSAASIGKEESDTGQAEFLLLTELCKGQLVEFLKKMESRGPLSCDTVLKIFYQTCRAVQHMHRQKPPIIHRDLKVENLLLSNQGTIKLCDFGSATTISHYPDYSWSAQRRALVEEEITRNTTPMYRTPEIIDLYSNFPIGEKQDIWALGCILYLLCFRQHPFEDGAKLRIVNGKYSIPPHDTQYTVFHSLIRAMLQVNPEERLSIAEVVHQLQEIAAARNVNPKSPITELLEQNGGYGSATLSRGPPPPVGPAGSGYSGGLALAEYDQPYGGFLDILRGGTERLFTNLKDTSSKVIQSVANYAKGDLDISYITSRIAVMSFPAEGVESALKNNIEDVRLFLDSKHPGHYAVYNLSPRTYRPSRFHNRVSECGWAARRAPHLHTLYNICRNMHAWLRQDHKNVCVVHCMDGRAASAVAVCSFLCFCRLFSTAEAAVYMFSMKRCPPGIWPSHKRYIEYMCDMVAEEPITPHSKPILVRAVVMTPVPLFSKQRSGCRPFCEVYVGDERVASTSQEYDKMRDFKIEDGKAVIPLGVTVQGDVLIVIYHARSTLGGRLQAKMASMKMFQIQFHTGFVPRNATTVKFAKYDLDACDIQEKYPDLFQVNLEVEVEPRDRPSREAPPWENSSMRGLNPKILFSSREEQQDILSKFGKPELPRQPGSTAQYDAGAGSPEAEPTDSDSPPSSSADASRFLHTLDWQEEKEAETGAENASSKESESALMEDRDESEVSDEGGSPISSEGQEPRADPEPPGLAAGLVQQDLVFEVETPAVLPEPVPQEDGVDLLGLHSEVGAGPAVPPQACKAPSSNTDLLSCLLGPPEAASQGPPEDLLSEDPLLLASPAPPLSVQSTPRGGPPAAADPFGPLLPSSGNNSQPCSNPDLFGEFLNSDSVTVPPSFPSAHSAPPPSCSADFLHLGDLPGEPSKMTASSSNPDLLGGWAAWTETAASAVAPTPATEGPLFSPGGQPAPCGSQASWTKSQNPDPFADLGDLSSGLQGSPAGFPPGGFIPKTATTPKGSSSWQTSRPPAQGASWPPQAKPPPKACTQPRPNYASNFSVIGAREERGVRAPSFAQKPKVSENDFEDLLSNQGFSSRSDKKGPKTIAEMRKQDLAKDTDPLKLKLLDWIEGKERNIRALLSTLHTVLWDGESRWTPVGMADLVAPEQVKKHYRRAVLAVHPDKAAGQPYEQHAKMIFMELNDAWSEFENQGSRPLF
PLK3 (human), sequence (Q9H4B4 whole entry, looked up): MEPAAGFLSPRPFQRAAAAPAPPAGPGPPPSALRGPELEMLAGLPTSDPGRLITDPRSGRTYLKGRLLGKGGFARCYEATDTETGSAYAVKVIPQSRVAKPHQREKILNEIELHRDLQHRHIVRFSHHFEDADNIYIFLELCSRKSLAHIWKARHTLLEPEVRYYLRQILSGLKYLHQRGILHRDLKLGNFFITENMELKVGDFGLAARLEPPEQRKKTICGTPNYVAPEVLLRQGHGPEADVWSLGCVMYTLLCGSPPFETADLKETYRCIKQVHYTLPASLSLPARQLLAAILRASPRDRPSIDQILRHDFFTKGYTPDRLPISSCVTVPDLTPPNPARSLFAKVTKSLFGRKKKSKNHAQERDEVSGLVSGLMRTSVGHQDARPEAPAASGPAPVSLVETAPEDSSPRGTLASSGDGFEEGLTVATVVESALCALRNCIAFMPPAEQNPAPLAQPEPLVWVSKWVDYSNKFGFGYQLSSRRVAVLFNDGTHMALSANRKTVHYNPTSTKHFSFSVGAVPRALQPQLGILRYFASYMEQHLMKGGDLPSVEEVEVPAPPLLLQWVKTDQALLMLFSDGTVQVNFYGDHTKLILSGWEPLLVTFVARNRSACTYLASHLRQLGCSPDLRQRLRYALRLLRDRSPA
STK33 (human), sequence (Q9BYT3 whole entry, looked up): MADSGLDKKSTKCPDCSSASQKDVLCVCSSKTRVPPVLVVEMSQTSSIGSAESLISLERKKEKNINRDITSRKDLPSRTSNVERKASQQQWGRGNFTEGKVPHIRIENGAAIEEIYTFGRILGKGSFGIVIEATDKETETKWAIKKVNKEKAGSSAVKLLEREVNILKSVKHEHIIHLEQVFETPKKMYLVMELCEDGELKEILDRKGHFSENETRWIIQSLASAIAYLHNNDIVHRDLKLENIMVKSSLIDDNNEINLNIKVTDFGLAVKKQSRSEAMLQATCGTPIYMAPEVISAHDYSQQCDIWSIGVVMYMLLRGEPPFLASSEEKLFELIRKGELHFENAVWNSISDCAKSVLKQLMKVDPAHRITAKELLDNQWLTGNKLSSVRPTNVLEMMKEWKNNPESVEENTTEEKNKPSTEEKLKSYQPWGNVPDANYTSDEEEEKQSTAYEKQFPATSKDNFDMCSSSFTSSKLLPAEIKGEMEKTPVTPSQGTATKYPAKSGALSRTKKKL
TTK (human), sequence (P33981 whole entry, looked up): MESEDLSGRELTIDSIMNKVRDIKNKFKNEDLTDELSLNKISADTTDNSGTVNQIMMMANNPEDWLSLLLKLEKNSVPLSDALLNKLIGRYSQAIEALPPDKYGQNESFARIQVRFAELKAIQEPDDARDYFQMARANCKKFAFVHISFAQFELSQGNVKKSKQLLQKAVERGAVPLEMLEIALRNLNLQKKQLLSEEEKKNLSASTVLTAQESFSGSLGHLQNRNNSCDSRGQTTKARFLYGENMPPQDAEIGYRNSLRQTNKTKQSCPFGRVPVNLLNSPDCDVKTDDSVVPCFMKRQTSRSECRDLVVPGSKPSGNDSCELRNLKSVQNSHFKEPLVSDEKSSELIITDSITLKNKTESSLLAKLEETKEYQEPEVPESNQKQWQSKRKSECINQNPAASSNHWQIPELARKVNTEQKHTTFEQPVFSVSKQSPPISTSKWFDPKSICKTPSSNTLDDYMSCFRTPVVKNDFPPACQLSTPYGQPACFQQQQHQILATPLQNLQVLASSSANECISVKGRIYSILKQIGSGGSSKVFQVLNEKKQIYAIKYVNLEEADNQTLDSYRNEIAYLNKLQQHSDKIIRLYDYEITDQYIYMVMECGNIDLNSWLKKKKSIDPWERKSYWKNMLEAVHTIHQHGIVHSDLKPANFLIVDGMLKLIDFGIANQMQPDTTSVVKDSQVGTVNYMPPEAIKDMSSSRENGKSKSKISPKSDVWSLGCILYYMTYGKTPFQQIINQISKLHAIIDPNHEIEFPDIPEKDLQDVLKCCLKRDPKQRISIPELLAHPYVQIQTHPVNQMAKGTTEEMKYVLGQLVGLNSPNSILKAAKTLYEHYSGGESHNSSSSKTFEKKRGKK
PRKD1 (human), sequence (Q15139 whole entry, looked up): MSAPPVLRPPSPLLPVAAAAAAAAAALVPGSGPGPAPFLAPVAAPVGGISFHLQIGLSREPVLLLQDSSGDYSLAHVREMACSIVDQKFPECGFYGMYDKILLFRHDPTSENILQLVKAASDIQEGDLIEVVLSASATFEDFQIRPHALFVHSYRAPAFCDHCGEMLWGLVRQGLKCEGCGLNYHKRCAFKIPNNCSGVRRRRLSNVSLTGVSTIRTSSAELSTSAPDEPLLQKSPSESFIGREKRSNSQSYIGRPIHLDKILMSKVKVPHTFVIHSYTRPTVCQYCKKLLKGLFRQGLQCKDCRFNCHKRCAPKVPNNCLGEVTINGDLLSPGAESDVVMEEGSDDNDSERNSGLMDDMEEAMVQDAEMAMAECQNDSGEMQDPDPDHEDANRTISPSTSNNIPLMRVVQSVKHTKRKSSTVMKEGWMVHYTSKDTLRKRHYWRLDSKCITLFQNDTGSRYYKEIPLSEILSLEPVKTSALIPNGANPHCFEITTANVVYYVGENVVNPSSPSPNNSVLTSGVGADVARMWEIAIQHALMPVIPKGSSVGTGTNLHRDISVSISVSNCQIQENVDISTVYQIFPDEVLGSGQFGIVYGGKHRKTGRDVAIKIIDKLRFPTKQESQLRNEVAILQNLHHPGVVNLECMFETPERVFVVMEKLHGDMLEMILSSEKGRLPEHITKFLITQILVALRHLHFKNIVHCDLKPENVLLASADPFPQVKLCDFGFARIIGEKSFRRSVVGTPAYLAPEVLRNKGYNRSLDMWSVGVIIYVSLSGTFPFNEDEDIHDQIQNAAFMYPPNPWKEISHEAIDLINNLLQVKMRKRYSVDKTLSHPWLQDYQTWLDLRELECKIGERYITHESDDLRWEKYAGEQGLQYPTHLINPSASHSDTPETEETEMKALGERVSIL

Turning to `COc1cc(N2CCC(O)CC2)ccc1Nc1ncc2c(n1)N(C1CCCC1)CCC(=O)N2C`, the kinase still bound, per cent of control is 3% on PLK1 (human); 3.2% at TTK (human) [1]; 18% on PTK2B (human); 8.3% at PLK4 (human); 31% at DAPK2 (human); 0% on PLK3 (human). Besides, the kinase still bound, per cent of control at GAK (human) was determined as 1.8%; on PTK2 (human) it was 6.8%; in [2], 22%; in [3], 32%; at MYLK (human) it was 25%; at TNK1 (human) it was 26%. For the same molecule, the kinase still bound, per cent of control in [4] was 33%; at STK33 (human), 11%; in assay [5], 29%; in assay [6] it was 28%. Moreover, the Kd on TTK (human) [1] was determined as 28.4 nM. Besides, the IC50 at TTK (human) [7] was determined as 342 nM.

In the case of `COc1cc(N2CCC(N3CCN(C)CC3)CC2)ccc1Nc1ncc2c(n1)N1CCCC1CC(=O)N2C` (stereo not drawn), the kinase still bound, per cent of control was determined as 1.8% on PLK1 (human); 2.4% at TTK (human) [1]; 26% on PLK4 (human); 13% on RPS6KA2 KD2 (human); 0.65% on DCLK1 (human); 17% on RPS6KA6 KD2 (human). The kinase still bound, per cent of control on PLK3 (human) was determined as 0.95%; on GAK (human), 2.6%; in [8] it was 32%; on PRKD2 (human), 23%; on DCLK2 (human) it was 25%; at PRKD1 (human), 19%. For the same molecule, the kinase still bound, per cent of control on CHEK1 (human) is 29%; at MYLK (human), 24%; on STK33 (human), 7%; on RPS6KA4 KD2 (human), 30%; at RPS6KA1 KD2 (human) it was 28%.

As to `COc1cc(N2CCN(C)CC2)ccc1Nc1ncc2c(n1)N(C1CCCC1)C(C)CC(=O)N2C` (stereo not drawn), the kinase still bound, per cent of control at PLK1 (human) amounted to 9%; at TTK (human) [1], 1.4%; on PTK2B (human), 4.6%; on MINK1 (human), 31%; at ULK2 (human) it was 1.3%; on RPS6KA2 KD2 (human), 12%. Besides, the kinase still bound, per cent of control at CAMKK2 (human) amounted to 24%; on ALK (human) it was 6.6%; on DCLK1 (human) it was 1.4%; on INSRR (human), 33%; at FER (human), 25%; at RPS6KA6 KD2 (human), 16%. Moreover, the kinase still bound, per cent of control is 20% on PLK3 (human); 1.2% at GAK (human); 0.95% at PTK2 (human); 3.6% on SLK (human); 19% on ULK1 (human); 29% at PRKD2 (human). Also, the kinase still bound, per cent of control on DCLK2 (human) came to 4.5%; on PRKD1 (human), 24%; at MYLK (human) it was 7.6%; on PRKD3 (human), 14%; on STK33 (human), 5.4%.
